Measured values taken from ChEMBL document CHEMBL1141635, “Novel GSK-3beta inhibitors from sequential virtual screening” (Bioorg Med Chem, 2008).

Target: Glycogen synthase kinase-3 beta (Homo sapiens) (UniProt P49841)
Test: Inhibition of human GSK3-beta assessed as remaining enzyme activity at 10 uM

Sequence of Glycogen synthase kinase-3 beta (Homo sapiens) (P49841 whole entry, looked up): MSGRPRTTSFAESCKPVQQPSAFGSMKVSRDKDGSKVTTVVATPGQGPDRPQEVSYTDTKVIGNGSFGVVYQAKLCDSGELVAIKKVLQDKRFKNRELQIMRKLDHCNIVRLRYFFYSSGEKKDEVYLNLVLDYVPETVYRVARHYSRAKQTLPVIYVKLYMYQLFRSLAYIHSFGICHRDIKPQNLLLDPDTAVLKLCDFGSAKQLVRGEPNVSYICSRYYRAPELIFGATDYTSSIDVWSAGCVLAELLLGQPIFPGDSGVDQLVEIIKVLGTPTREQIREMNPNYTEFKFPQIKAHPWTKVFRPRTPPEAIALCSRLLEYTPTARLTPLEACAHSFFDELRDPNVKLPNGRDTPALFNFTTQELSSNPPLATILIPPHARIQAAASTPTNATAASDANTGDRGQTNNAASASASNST

| Activity [%] | Structure (SMILES) |
| --- | --- |
| 5 | COc1ccc(-c2ccc(/C=C3\SC(=S)NC3=O)o2)c([N+](=O)[O-])c1 |
| 41 | O=C1CC(C(F)(F)F)=NC(Sc2c(-c3ccccc3)c3cc([N+](=O)[O-])ccc3[nH]c2=O)=N1 |
| 14 | O=C1NC(=S)S/C1=C\c1ccccc1OS(=O)(=O)c1ccccc1[N+](=O)[O-] |
| 6 | COc1cc(/C=C2\SC(=S)NC2=O)cc(Br)c1OCc1ccccc1C |
| 67 | Cc1ccc(S(=O)(=O)n2cc(/C=C3\SC(=S)NC3=O)c3ccccc32)cc1 |
| 7 | O=C1NC(=S)S/C1=C\c1ccc(O)c([N+](=O)[O-])c1 |
| 99 | CC1=NCCNC2=C1[C@H](c1ccc(F)cc1)N(c1ccccn1)C2=O |
| 84 | COc1ccc2c(c1)/C(=C1/SC(=S)NC1=O)C(=O)N2 |
| 41 | Cc1cc(/C=C2\SC(=S)NC2=O)c(C)n1-c1cccc([N+](=O)[O-])c1 |
| 95 | CCCNc1nc2ccccn2c(=O)c1/C=C1\SC(=S)NC1=O |
| 18 | Cc1ccc(/N=C2/NC(=O)S/C2=C\c2ccccc2Cl)cc1 |
| 58 | CCOc1cc(C=C2C(=O)NC(=S)NC2=O)cc(I)c1OC |
| 8 | O=C1NC(=O)/C(=C/c2ccc(-c3cc([N+](=O)[O-])ccc3Cl)o2)S1 |
